Reference: patent US11590117B2, “Treatment of a hematologic malignancy with 2-(4-chlorophenyl)-n-((2-(2,6-dioxopiperidin-3-yl)-1-oxoisoindolin-5-yl)methyl)-2,2-difluoroacetamide” (priority 2016, dated 2023)
Values joined by “and” are separate entries in the source; they are usually repeats but may differ in a detail not shown here. Equal values may be shown once.

Columns and labels:
Type in all cases: cell-based, human
[1] = tested on: CFU-E; test: Colony forming assay, bone marrow CD34+ cells in MethoCult
Experimental: (§1) Experimental design: human bone marrow (BM) CD34+ cells were used to evaluate the potential for BM toxicity induced by Compound 1. In order to test the effects of Compound 1 on the functionality of hematopoietic progenitors, colony forming assays were done by seeding BM CD34+ cells on MethoCult medium. Cells were seeded directly in MethoCult with Compound 1 or cultured in liquid medium with Compound 1 for 2, 4, or 8 hours and then seeded in compound-free MethoCult to evaluate the effect of different exposure times. Early apoptosis induced by Compound 1 on HSC was analyzed by flow cytometry.
(§2) Results. Colony forming units (CFU) of common granulocyte/erythrocyte/monocyte/megakaryocyte (CFU-GEMM), CFU of granulocyte/monocyte (CFU-GM), burst forming unit of erythrocytes (BFU-E), and CFU of erythrocytes (CFU-E) in cultures exposed to Compound 1 or DMSO were scored on STEMvision.
(§3) Bone marrow CD34+ cells from normal donors were incubated with Compound 1 in MethoCult medium. Colony numbers for CFU-GM and BFU-E progenitors were counted using STEMVision automatic colony counting instrument and software and normalized to the colony number of the DMSO control. Results plotted as percentage of DMSO control vs concentration of Compound 1 were used to determine IC50 values. Data are shown as mean standard error of the mean of n=3 technical replicates. Donors were HD10, HD14, HD18, and HD19.

[2] = tested on: CFU-GEMM; test: as above
Experimental: as §1, §2, §3

[3] = tested on: CFU-GM (granulocyte/monocyte progenitors); test: as above
Experimental: as §1, §2, §3
FIGS. 33A and 33B provide, colony numbers after preincubation of bone marrow CD34+ cells with Compound 1 for 4 or 8 hours, respectively, in Iscove's medium, followed by incubation in MethoCult medium without Compound 1 for 14 days. FIG. 33C provides colony numbers after incubation of bone marrow CD34+ cells in MethoCult medium in continuous presence of Compound 1 for 14 days.

[4] = tested on: OCI-AML3; test: Annexin V/7-AAD flow cytometry apoptosis assay; conditions: OCI-AML3 (Compound 1-insensitive AML line)
Experimental: Cell Apoptosis Assays: The ability of Compound 1 to induce apoptosis was assessed in selected AML cell lines and healthy PBMCs at the time points and compound concentrations indicated. For Annexin V/7-AAD readout by flow cytometry, AML cell lines were plated into flat bottom 96-well plates (BD Falcon) at a seeding density of 0.1 to 0.3×10^6 cells per mL in 200 μL complete media. Compound 1 was dispensed onto the plates and the cells were incubated for the times indicated. For frozen PBMCs, cells were thawed as previously described and plated at a seeding density of 1×10^6 cells per mL in 200 μL on Corning® BioCoat™ T-Cell Activation Anti-Human CD3 96-well plates (Corning Inc., Corning, N.Y.). Compound 1 was dispensed onto the plates and the cells were incubated for the times indicated. […] One hundred microliters of Annexin V/7-AAD buffer was added per well and the cells incubated for 15 minutes before being analyzed using the Attune Flow Cytometer (Life Technologies, Carlsbad, Calif.). For caspase 3/7 activity, the remaining 100 μL was incubated with CellEvent™ Caspase-3/7 Green ReadyProbes® Reagent (1:1000 dilution; Molecular Probes) for 15 minutes before being analyzed using the Attune Flow Cytometer. […]
Compound 1 Induces Apoptosis in Acute Myeloid Leukemia Cell Lines. […] 0.01 μM and 0.1 μM and apoptosis was assessed over time.

[5] = Donor HD10, 7.4 nM Compound 1, replicate counts
[6] = Donor HD10, 22.2 nM Compound 1, replicate counts
[7] = Donor HD10, 67 nM Compound 1, replicate counts
[8] = Donor HD10, 200 nM Compound 1, replicate counts
[9] = Donor HD10, 600 nM Compound 1, replicate counts
[10] = Donor HD14, 7.4 nM Compound 1, replicate counts
[11] = Donor HD14, 22.2 nM Compound 1, replicate counts
[12] = Donor HD14, 67 nM Compound 1, replicate counts
[13] = Donor HD14, 200 nM Compound 1, replicate counts
[14] = Donor HD14, 600 nM Compound 1, replicate counts
[15] = Donor HD18, 7.4 nM Compound 1, replicate counts
[16] = Donor HD18, 22.2 nM Compound 1, replicate counts
[17] = Donor HD18, 67 nM Compound 1, replicate counts
[18] = Donor HD18, 200 nM Compound 1, replicate counts
[19] = Donor HD18, 600 nM Compound 1, replicate counts
[20] = Donor HD19, 7.4 nM Compound 1, replicate counts
[21] = Donor HD19, 22.2 nM Compound 1, replicate counts
[22] = Donor HD19, 67 nM Compound 1, replicate counts
[23] = Donor HD19, 200 nM Compound 1, replicate counts
[24] = Donor HD19, 600 nM Compound 1, replicate counts

SMILES: O=C1CCC(N2Cc3cc(CNC(=O)C(F)(F)c4ccc(Cl)cc4)ccc3C2=O)C(=O)N1 (centres unmarked) [Compound 1, 2-(4-chlorophenyl)-N-((2-(2,6-dioxopiperidin-3-yl)-1-oxoisoindolin-5-yl)methyl)-2,2-difluoroacetamide]
- Colony Number CFU-E [1, 5]: 2
- Colony Number CFU-E [1, 6]: 0
- Colony Number CFU-E [1, 7]: 0
- Colony Number CFU-E [1, 8]: 1 and 3
- Colony Number CFU-E [1, 9]: 0
- Colony Number CFU-E [1, 10]: 6 and 0
- Colony Number CFU-E [1, 11]: 7 and 0
- Colony Number CFU-E [1, 12]: 4
- Colony Number CFU-E [1, 13]: 1 and 2
- Colony Number CFU-E [1, 14]: 2 and 0
- Colony Number CFU-E [1, 15]: 0 and 2
- Colony Number CFU-E [1, 16]: 7 and 1
- Colony Number CFU-E [1, 17]: 3 and 0
- Colony Number CFU-E [1, 18]: 3 and 2
- Colony Number CFU-E [1, 19]: 1
- Colony Number CFU-E [1, 20]: 9 and 4
- Colony Number CFU-E [1, 21]: 4 and 5
- Colony Number CFU-E [1, 22]: 6 and 3
- Colony Number CFU-E [1, 23]: 3 and 1
- Colony Number CFU-E [1, 24]: 1
- Colony Number CFU-GEMM [2, 5]: 4 and 2
- Colony Number CFU-GEMM [2, 6]: 2 and 0
- Colony Number CFU-GEMM [2, 7]: 5 and 1
- Colony Number CFU-GEMM [2, 8]: 0
- Colony Number CFU-GEMM [2, 9]: 0
- Colony Number CFU-GEMM [2, 10]: 0
- Colony Number CFU-GEMM [2, 11]: 0
- Colony Number CFU-GEMM [2, 12]: 0
- Colony Number CFU-GEMM [2, 13]: 0
- Colony Number CFU-GEMM [2, 14]: 0
- Colony Number CFU-GEMM [2, 15]: 2 and 4
- Colony Number CFU-GEMM [2, 16]: 1
- Colony Number CFU-GEMM [2, 17]: 0
- Colony Number CFU-GEMM [2, 18]: 0
- Colony Number CFU-GEMM [2, 19]: 0
- Colony Number CFU-GEMM [2, 20]: 4
- Colony Number CFU-GEMM [2, 21]: 0 and 1
- Colony Number CFU-GEMM [2, 22]: 0 and 1
- Colony Number CFU-GEMM [2, 23]: 0
- Colony Number CFU-GEMM [2, 24]: 0
- Colony Number CFU-GM [3, 5]: 82 and 74
- Colony Number CFU-GM [3, 6]: 71 and 80
- Colony Number CFU-GM [3, 7]: 48 and 61
- Colony Number CFU-GM [3, 8]: 2 and 0
- Colony Number CFU-GM [3, 9]: 0
- Colony Number CFU-GM [3, 10]: 15 and 12
- Colony Number CFU-GM [3, 11]: 16 and 15
- Colony Number CFU-GM [3, 12]: 6 and 4
- Colony Number CFU-GM [3, 13]: 0
- Colony Number CFU-GM [3, 14]: 0
- Colony Number CFU-GM [3, 15]: 59 and 73
- Colony Number CFU-GM [3, 16]: 55 and 62
- Colony Number CFU-GM [3, 17]: 2 and 6
- Colony Number CFU-GM [3, 18]: 0
- Colony Number CFU-GM [3, 19]: 0
- Colony Number CFU-GM [3, 20]: 44 and 70
- Colony Number CFU-GM [3, 21]: 34 and 35
- Colony Number CFU-GM [3, 22]: 4 and 5
- Colony Number CFU-GM [3, 23]: 0
- Colony Number CFU-GM [3, 24]: 0
- IC50 ([3]; Homo sapiens, CFU-GM, CD34+ cells from four healthy donors, Compound 1 in MethoCult, read-out: IC50, inhibition of granulo-monocytic progenitors (CFU-GM)): 82 to 135 nM
- induction of apoptosis [4]: did not induce apoptosis
